Source: ChEMBL document CHEMBL1153435, “Harnessing nature's insight: design of aspartyl protease inhibitors from treatment of drug-resistant HIV to Alzheimer's disease” (J Med Chem, 2009)
pIC50, pKi: −log10 of the molar value. One block for each molecule: values may come before it. *1 amine or outer side, *2 acyl side, *3 side chain or, on linkers, in order; H or OH if unused. Where a SMILES comes first, the peptide text is derived from it. [ ]: non-standard residue; d: D form. LeuΨ(S-CHOHCH2)Ala = CC(C)C[C@H](N[*:1])[C@@H](O)C[C@@H](C)C(=O)[*:2]

How the values were obtained:
[1] = test system: Human immunodeficiency virus 1; assay: Antiviral activity against HIV1 assessed as inhibition of viral replication; format: functional, organism-based; conditions: for IC95: read-out: CIC95
[2] = test system: Human immunodeficiency virus 1; assay: Antiviral activity against laboratory HIV1 strains and primary clinical isolates
Protease = Protease (Human immunodeficiency virus 1, UniProt Q9YQ12); assay: Inhibition of HIV1 protease
Protease, sequence (Q9YQ12 whole entry): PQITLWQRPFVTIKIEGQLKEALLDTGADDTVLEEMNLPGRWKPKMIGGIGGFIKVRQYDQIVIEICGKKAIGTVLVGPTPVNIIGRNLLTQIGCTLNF

[3] = biological target: Protease (Human immunodeficiency virus 1) (UniProt Q9YQ12)
Protease (Human immunodeficiency virus 1), sequence (Q9YQ12 as listed by the source): as the sequence (Q9YQ12 whole entry) above

Beta-secretase 1 = Beta-secretase 1 (Homo sapiens, UniProt P56817); assay: Inhibition of recombinant memapsin 2
Beta-secretase 1, sequence (P56817 whole entry): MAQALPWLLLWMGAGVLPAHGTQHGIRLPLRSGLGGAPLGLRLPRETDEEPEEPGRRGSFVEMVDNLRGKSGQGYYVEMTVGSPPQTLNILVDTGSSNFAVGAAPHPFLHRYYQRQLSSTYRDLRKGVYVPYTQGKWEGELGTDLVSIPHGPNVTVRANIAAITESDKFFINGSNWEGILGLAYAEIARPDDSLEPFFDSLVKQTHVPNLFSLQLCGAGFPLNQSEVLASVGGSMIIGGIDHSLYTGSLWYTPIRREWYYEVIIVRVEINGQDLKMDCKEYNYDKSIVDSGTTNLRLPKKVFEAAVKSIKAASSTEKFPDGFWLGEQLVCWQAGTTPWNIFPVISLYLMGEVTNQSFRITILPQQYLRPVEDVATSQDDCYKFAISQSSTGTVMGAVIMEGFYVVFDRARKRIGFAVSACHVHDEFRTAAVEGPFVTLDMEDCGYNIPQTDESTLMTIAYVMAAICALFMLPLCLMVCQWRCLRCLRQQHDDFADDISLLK

[4] = test system: Human immunodeficiency virus 1; assay: Antiviral activity against protease inhibitor resistant HIV1 isolates; format: functional, organism-based
[5] = Oral bioavailability in HIV1 infected patient at 600 mg administered as single dose; format: ADME, organism-based; conditions: human, in vivo
[6] = read-out: ID50 (the source's name)

Structure (SMILES): CC(C)CN(C[C@@H](O)[C@H](Cc1ccccc1)NC(=O)O[C@H]1CO[C@H]2OCC[C@H]21)S(=O)(=O)c1ccc(N)cc1
pIC50 ([1]; read-out: IC50): 8.39
IC90 [2]: 9 nM

pKi (Protease): 8.66
pIC50 [1, 6]: 8.35
Structure (SMILES): COc1ccc(S(=O)(=O)N(CC(C)C)C[C@@H](O)[C@H](Cc2ccccc2)NC(=O)O[C@H]2COC3OCCC[C@@H]32)cc1 (single isomer, unassigned)

pIC50 ([1]; read-out: IC50): 8.39
Structure (SMILES): COc1ccc(S(=O)(=O)N(CC(C)C)C[C@@H](O)[C@H](Cc2ccccc2)NC(=O)O[C@H]2CO[C@@H]3OCC[C@@H]32)cc1

pKi (Protease): 9.22
IC90 [3]: 40 nM
Structure (SMILES): CC(C)CN(C[C@@H](O)[C@H](Cc1ccccc1)NC(=O)O[C@H]1CCOC1)S(=O)(=O)c1ccc(N)cc1

pKi (Protease): 8.54
Structure (SMILES): COc1ccc(S(=O)(=O)N(CC(C)C)C[C@@H](O)[C@H](Cc2ccccc2)NC(=O)[C@@H]2CCC[C@]3(CCCO3)C2)cc1

pIC50 (Protease): 7.77
Structure (SMILES): CC(C)(C)NC(=O)[C@@H]1C[C@@H]2CCCC[C@@H]2CN1C[C@@H](O)[C@H](Cc1ccccc1)NC(=O)O[C@H]1CC[C@H]2OCC[C@@H]12

Structure (SMILES): COc1ccc(S(=O)(=O)N(CC(C)C)C[C@@H](O)[C@H](Cc2ccccc2)NC(=O)O[C@@H]2CCOCOC2)cc1
pIC50 (Protease): 8.30

pIC50 (Protease): > 10.52
Structure (SMILES): O=C(N[C@@H](Cc1ccccc1)[C@@H](O)C[C@@H](Cc1ccccc1)C(=O)N[C@H]1c2ccccc2C[C@H]1O)O[C@H]1CCOC1
IC95 [1]: 3 nM

pIC50 [1, 6]: 7.74
Structure (SMILES): CC(C)(C)NC(=O)[C@@H]1C[C@@H]2CCCC[C@@H]2CN1C[C@@H](O)[C@H](Cc1ccccc1)NC(=O)[C@H](CC(N)=O)NC(=O)c1ccc2ccccc2n1

pKi (Protease): 8.85
pIC50 [1, 6]: 7.77
Structure (SMILES): COc1ccc(S(=O)(=O)N(CC(C)C)C[C@@H](O)[C@H](Cc2ccccc2)NC(=O)[C@@H]2CCCS(=O)(=O)C2)cc1

pIC50 (Protease): 7.55
pKi (Protease): 9.80
Structure (SMILES): COc1ccc(S(=O)(=O)N(C[C@@H]2CCC(=O)N2)C[C@@H](O)[C@H](Cc2ccccc2)NC(=O)O[C@H]2CC[C@H]3OCC[C@@H]23)cc1

pIC50 (Protease): 6.80
Structure (SMILES): CC(C)(C)NC(=O)[C@@H]1C[C@@H]2CCCC[C@@H]2CN1C[C@@H](O)[C@H](Cc1ccccc1)NC(=O)O[C@H]1CCOC1
IC95 [1]: 800 nM

pIC50 (Protease): 10.30
Structure (SMILES): CC(C)(C)NC(=O)[C@@H]1C[C@@H]2CCCC[C@@H]2CN1C[C@@H](O)[C@H](Cc1ccccc1)NC(=O)[C@@H](NC(=O)c1ccc2ccccc2n1)[C@H]1CCOC1
IC95 [1]: 8 nM

pIC50 (Protease): 7.12
Structure (SMILES): CC(C)(C)NC(=O)[C@@H]1C[C@@H]2CCCC[C@@H]2CN1C[C@@H](O)[C@H](Cc1ccccc1)NC(=O)O[C@H]1CCS(=O)(=O)C1
IC95 [1]: 350 nM

Structure (SMILES): CC(C)(C)NC(=O)[C@@H]1C[C@@H]2CCCC[C@@H]2CN1C[C@@H](O)[C@H](Cc1ccccc1)NC(=O)O[C@H]1CO[C@H]2OCC[C@H]21
IC95 [1]: 46 nM

pKi (Protease): 8.43
pIC50 [1, 6]: 6.58
Structure (SMILES): COc1ccc(S(=O)(=O)N(CC(C)C)C[C@@H](O)[C@H](Cc2ccccc2)NC(=O)O[C@H]2CC[C@]3(CCCO3)C2)cc1

pKi (Beta-secretase 1): 9.10
Structure (SMILES): CSCC[C@H](NC(=O)[C@@H](NC(=O)OC(C)(C)C)C(C)C)C(=O)N[C@@H](CC(C)C)[C@@H](O)C[C@@H](C)C(=O)N[C@H](C(=O)NCC(C)C)C(C)C

pKi (Beta-secretase 1): 8.17
Structure (SMILES): CC(C)C[C@H](NC(=O)[C@H](CC(N)=O)NC(=O)[C@@H](N)C(C)C)[C@@H](O)C[C@@H](C)C(=O)N[C@@H](C)C(=O)N[C@@H](CCC(=O)O)C(=O)N[C@@H](Cc1ccccc1)C(=O)O (H-VN[LeuΨ(S-CHOHCH2)Ala]AEF-OH)

pKi (Protease): 8.41
pIC50 [1, 6]: 5.92
Structure (SMILES): COc1ccc(S(=O)(=O)N(CC(C)C)C[C@@H](O)[C@H](Cc2ccccc2)NC(=O)[C@@H]2CCO[C@]3(CCCO3)C2)cc1

pIC50 ([1]; read-out: IC50): 8.85
Structure (SMILES): CC(C)CN(C[C@@H](O)[C@H](Cc1ccccc1)NC(=O)O[C@H]1CO[C@H]2OCC[C@H]21)S(=O)(=O)c1ccc2c(c1)OCO2

pKi (Protease): 8.85
pIC50 [1, 6]: 7.72
Structure (SMILES): COc1ccc(S(=O)(=O)N(CC(C)C)C[C@@H](O)[C@H](Cc2ccccc2)NC(=O)O[C@H]2CCS(=O)(=O)C2)cc1

pIC50 (Protease): 8.42
pKi (Protease): 9.96
Structure (SMILES): COc1ccc(S(=O)(=O)N(CC(C)C)C[C@@H](O)[C@H](Cc2ccccc2)NC(=O)O[C@H]2CC[C@H]3OCO[C@@H]23)cc1

Structure (SMILES): COc1ccc(S(=O)(=O)N(CC(C)C)C[C@@H](O)[C@H](Cc2ccccc2)NC(=O)O[C@H]2CO[C@H]3OCC[C@H]32)cc1
pIC50 [4]: 9.30

pIC50 (Protease): 9.52
Structure (SMILES): O=C(N[C@@H](Cc1ccccc1)[C@@H](O)C[C@@H](Cc1ccccc1)C(=O)N[C@H]1c2ccccc2C[C@H]1O)OC1CCCC1
IC95 [1]: 400 nM

bioavailability [5]: 37%
Structure (SMILES): CC(C)c1nc(CN(C)C(=O)N[C@H](C(=O)N[C@@H](Cc2ccccc2)C[C@H](O)[C@H](Cc2ccccc2)NC(=O)OCc2cncs2)C(C)C)cs1 [RITONAVIR]
